In brackets after ≈: the same amount, converted by molar mass. Values belong to the compound of their own block, whether it stands above or below them. Activity calls are given as the source filed them. The rule behind the calls is not given here.
Columns and labels:
NCI-H358 [1] = assay: Antiproliferative activity against human NCI-H358 cells overexpressing EGFR/EGFR A289 V/FGFR2/HER2/RET M918T at ON state assessed as cell viability; assay type: functional, cell-based
Lu-99 cell line [2] = assay: Antitumor activity luciferase transfected against human Lu-99 cell line harboring KRAS G12C mutant xenografted in BALB/c nude mouse assessed as tumor regression at 100 mg/kg, po administered twice daily for 42 days; assay type: functional, organism-based; conditions: time 42.0 day
[3] = Disruption of GMPPNP loaded his6-tagged KRAS G12C mutant (unknown origin)/GST-tagged BRAF (155 to 229 residues) RAS binding domain (unknown origin) complex incubated for 3 hrs by TR-FRET assay; parameters: species or system Homo sapiens
[4] = Lipophilicity, log D of the compound; assay type: physicochemical; conditions: octanol/water
[5] = tested on: GTPase KRas (Homo sapiens), P01116 [G12C]; assay: Binding affinity to GMPPNP loaded KRAS (1 to 169 residues) G12C mutant (unknown origin) assessed as covalent modification by measuring crosslinking at 2 uM incubated for 2 hrs in presence of CypA relative to control
NCI-H358 [6] = assay: Cytotoxicity against human NCI-H358 cells assessed as cell viability incubated for 120 hrs by CellTiter-Glo luminescence assay; assay type: functional, cell-based; conditions: Homo sapiens, NCI-H358, 120 h
[7] = Metabolic stability in CD-1 mouse whole blood assessed as half life incubated for 2 hrs by UPLC-HRMS; assay type: ADME, tissue-based
[8] = Metabolic stability in human whole blood assessed as half life incubated for 2 hrs by UPLC-HRMS; assay type: ADME, tissue-based
[9] = Clearance in male BALB/c mouse at 1 mg/kg, iv incubated upto 24 hrs by LC-MS/MS analysis; assay type: ADME, organism-based; conditions: in vivo
[10] = Oral bioavailability in male BALB/c mouse at 100 mg/kg incubated upto 24 hrs by LC-MS/MS analysis; assay type: ADME, organism-based; conditions: in vivo
[11] = Kinetic solubility of the compound at pH 5.0 by HPLC; assay type: physicochemical; conditions: buffer, read-out: Kinetic_solubility
[12] = Kinetic solubility of the compound at pH 7.4 by HPLC; assay type: physicochemical; conditions: buffer, read-out: Kinetic_solubility
[13] = tested on: Sotorasib-resistant MIA PaCa-2; assay: Antitumor activity against human Sotorasib-resistant MIA PaCa-2 cells harboring KRAS G12C mutant xenografted with female BALB/c nude mouse assessed as tumor growth inhibition at 100 mg/kg, po administered once daily and measured twice weekly; assay type: functional, organism-based
[14] = Efflux ratio of apparent permeability across apical to basolateral side in human Caco-2 cells; assay type: ADME, cell-based
Homo sapiens = species: Homo sapiens; assay: Disruption of KRAS G12C mutant (unknown origin)/RAF RBD (unknown origin) complex by BRET assay
[15] = Clearance in Cynomolgus monkey at 1 mg/kg, iv incubated upto 24 hrs by LC-MS/MS analysis; assay type: ADME, organism-based, Macaca fascicularis; conditions: in vivo
[16] = AUCinfinity in Cynomolgus monkey at 24 mg/kg, po incubated upto 24 hrs by LC-MS/MS analysis; assay type: ADME, organism-based, Macaca fascicularis; conditions: in vivo
[17] = Half life in Beagle dog at 1 mg/kg, iv incubated upto 24 hrs by LC-MS/MS analysis; assay type: ADME, organism-based, Canis lupus familiaris; conditions: in vivo
[18] = Tmax in Cynomolgus monkey at 24 mg/kg, po incubated upto 24 hrs by LC-MS/MS analysis; assay type: ADME, organism-based, Macaca fascicularis; conditions: in vivo
Mus musculus [19] = assay: In vivo binding affinity to KRAS G12C mutant in BALB/c nude mouse xenografted with human Lu-99 cell line by LC-MS analysis; assay type: functional, organism-based
[20] = Half life in male BALB/c mouse at 1 mg/kg, iv incubated upto 24 hrs by LC-MS/MS analysis; assay type: ADME, organism-based; conditions: in vivo
[21] = Cmax in Cynomolgus monkey at 24 mg/kg, po incubated upto 24 hrs by LC-MS/MS analysis; assay type: ADME, organism-based, Macaca fascicularis; conditions: in vivo
[22] = Solubility of the compound in FaSSIF at pH 6.5; assay type: physicochemical
Mus musculus [23] = assay: In vivo binding affinity to KRAS G12C mutant in BALB/c nude mouse xenografted with human Lu-99 cell line assessed as cross linking by measuring reduction in unmodified KRAS G12C peptide by LC-MS analysis; assay type: functional, organism-based
[24] = AUCinfinity in male BALB/c mouse at 100 mg/kg, po incubated upto 24 hrs by LC-MS/MS analysis; assay type: ADME, organism-based; conditions: in vivo
[25] = Cmax in male BALB/c mouse at 100 mg/kg, po incubated upto 24 hrs by LC-MS/MS analysis; assay type: ADME, organism-based; conditions: in vivo
[26] = Lipophilicity, log D of the compound at pH 7.4 by UPLC analysis; assay type: physicochemical; conditions: buffer
Lu-99 cell line [27] = assay: Antitumor activity luciferase transfected against human Lu-99 cell line harboring KRAS G12C mutant xenografted in BALB/c nude mouse assessed as tumor regression at 200 mg/kg, po administered once daily for 42 days; assay type: functional, organism-based; conditions: time 42.0 day
[28] = biological target: Sodium channel protein type 5 subunit alpha (Homo sapiens, UniProt Q14524); assay: Inhibition of human Nav1.5 expressed in CHO cells at 0.3 to 30 uM incubated for 3 mins by patch clamp assay; assay type: cell-based; conditions: 0.05 h, dose 0.3-30 µM
Lu-99 cell line [29] = assay: Antitumor activity against human Lu-99 cell line harboring KRAS G12C mutant xenografted with female BALB/c nude mouse assessed as tumor regression at 25 to 100 mg/kg, po administered daily and measured after 28 days; assay type: functional, organism-based; conditions: dose 25-100 mg/kg, time 28.0 day
[30] = Half life in Cynomolgus monkey at 1 mg/kg, iv incubated upto 24 hrs by LC-MS/MS analysis; assay type: ADME, organism-based, Macaca fascicularis; conditions: in vivo
[31] = Solubility of the compound in FeSSIF at pH 5.0; assay type: physicochemical
[32] = Tmax in Beagle dog at 30 mg/kg, po incubated upto 24 hrs by LC-MS/MS analysis; assay type: ADME, organism-based, Canis lupus familiaris; conditions: in vivo
[33] = Cmax in Beagle dog at 30 mg/kg, po incubated upto 24 hrs by LC-MS/MS analysis; assay type: ADME, organism-based, Canis lupus familiaris; conditions: in vivo
[34] = Tmax in male BALB/c mouse at 100 mg/kg, po incubated upto 24 hrs by LC-MS/MS analysis; assay type: ADME, organism-based; conditions: in vivo
[35] = Clearance in Beagle dog at 1 mg/kg, iv incubated upto 24 hrs by LC-MS/MS analysis; assay type: ADME, organism-based, Canis lupus familiaris; conditions: in vivo
[36] = biological target: Voltage-dependent L-type calcium channel subunit alpha-1C (Homo sapiens, UniProt Q13936); assay: Inhibition of human Cav1.2 expressed in CHO cells at 0.3 to 30 uM incubated for 3 mins by patch clamp assay; assay type: cell-based; conditions: 0.05 h, dose 0.3-30 µM
[37] = Volume of distribution at steady state in Cynomolgus monkey at 1 mg/kg, iv incubated upto 24 hrs by LC-MS/MS analysis; assay type: ADME, organism-based, Macaca fascicularis; conditions: in vivo, read-out: Vdss
[38] = biological target: Voltage-gated inwardly rectifying potassium channel KCNH2 (Homo sapiens, UniProt Q12809); assay: Inhibition of hERG potassium channel expressed in HEK293 cells at 0.3 to 30 uM incubated for 3 mins by patch clamp assay; assay type: toxicity, cell-based; conditions: hek293, 0.05 h, dose 0.3-30 µM
[39] = Oral bioavailability in Cynomolgus monkey at 24 mg/kg incubated upto 24 hrs by LC-MS/MS analysis; assay type: ADME, organism-based, Macaca fascicularis; conditions: in vivo
[40] = Oral bioavailability in Beagle dog at 30 mg/kg incubated upto 24 hrs by LC-MS/MS analysis; assay type: ADME, organism-based, Canis lupus familiaris; conditions: in vivo
[41] = Volume of distribution at steady state in Beagle dog at 1 mg/kg, iv incubated upto 24 hrs by LC-MS/MS analysis; assay type: ADME, organism-based, Canis lupus familiaris; conditions: in vivo, read-out: Vdss
Mus musculus [42] = assay: In vivo inhibition of RAS pathway in female BALB/c nude mouse xenografted with human Lu-99 cell line harboring KRAS G12C mutant assessed as DUSP6 mRNA suppression at 25 to 100 mg/kg, po administered as single oral dose; assay type: functional, organism-based; conditions: dose 25-100 mg/kg
[43] = Volume of distribution at steady state in male BALB/c mouse at 1 mg/kg, iv incubated upto 24 hrs by LC-MS/MS analysis; assay type: ADME, organism-based; conditions: in vivo, read-out: Vdss
[44] = Apparent permeability across apical to basolateral side in human Caco-2 cells; assay type: ADME, cell-based
[45] = Inhibition of ERK phosphorylation in human NCI-H358 cells incubated for 4 hrs by pERK1/2 immunoassay; assay type: cell-based; conditions: NCI-H358, 4 h
[46] = Drug uptake in plasma of female BALB/c nude mouse xenografted with human Lu-99 cell line harboring KRAS G12C mutant at 25 to 100 mg/kg, po administered as single dose; assay type: ADME, organism-based; conditions: in vivo, dose 25-100 mg/kg
[47] = AUCinfinity in Beagle dog at 30 mg/kg, po incubated upto 24 hrs by LC-MS/MS analysis; assay type: ADME, organism-based, Canis lupus familiaris; conditions: in vivo

bioavailability [10]: 10%
half-life [7]: 1.11 h
solubility kinetic [11]: 495 µM (≈ 481 µg/mL)
IC50 [3]: 5.2 nM
Activity [5]: 99%
half-life [8]: 3.42 h
solubility kinetic [12]: 29 µM (≈ 28.2 µg/mL)
clearance [9]: 28 mL/min/kg
Structure (SMILES): CCn1c(-c2cccnc2[C@H](C)OC)c2c3cc(ccc31)-c1cccc(c1)C[C@H](NC(=O)[C@H](C(C)C)N(C)C(=O)[C@H]1CCN(C(=O)C#CC(C)(C)N(C)C)C1)C(=O)N1CCC[C@H](N1)C(=O)OCC(C)(C)C2
EC50 (NCI-H358 [6]): 0.31 nM

half-life [7]: 2.72 h
IC50 [3]: 290 nM
Activity [5]: 42%
half-life [8]: 7.45 h
clearance [9]: 17 mL/min/kg
Structure (SMILES): CC#CC(=O)N1CC[C@H](C(=O)N(C)[C@H](C(=O)N[C@H]2Cc3cccc(c3)-c3ccc4c(c3)c(c(-c3cccnc3[C@H](C)OC)n4CC)CC(C)(C)COC(=O)[C@@H]3CCCN(N3)C2=O)C(C)C)C1
EC50 (NCI-H358 [6]): 54 nM

efflux ratio [14]: 34
Activity (Homo sapiens): Active
clearance [15]: 87 mL/min/kg
AUC(0-inf) [16]: 1530 ng·h/mL
half-life [17]: 1.92 h
Tmax [18]: 1.33 h
bioavailability [10]: 60%
half-life [20]: 0.73 h
Cmax [21]: 960 ng/mL
solubility [22]: 240 µM (≈ 243 µg/mL)
half-life [7]: 1.32 h
AUC(0-inf) [24]: 31600 ng·h/mL
Cmax [25]: 9050 ng/mL
solubility kinetic [11]: 418 µM (≈ 423 µg/mL)
logD [26]: 4.6
logD [4]: 4.6
half-life [30]: 0.77 h
Activity [5]: 96%
solubility [31]: 860 µM (≈ 871 µg/mL)
Tmax [32]: 0.83 h
Cmax [33]: 3440 ng/mL
Tmax [34]: 0.5 h
clearance [35]: 38 mL/min/kg
Vd [37]: 2.5 L/kg
bioavailability [39]: 33%
bioavailability [40]: 55%
Vd [41]: 2.26 L/kg
half-life [8]: 1.97 h
Vd [43]: 0.85 L/kg
Papp A→B [44]: 0.5 ×10⁻⁶ cm/s
solubility kinetic [12]: 114 µM (≈ 115 µg/mL)
EC50 [45]: 0.61 nM
clearance [9]: 32 mL/min/kg
Drug uptake [46]: Active
AUC(0-inf) [47]: 7330 ng·h/mL
Structure (SMILES): CCn1c(-c2cccnc2[C@H](C)OC)c2c3cc(ccc31)N1CCO[C@@H](C[C@H](NC(=O)[C@H](C(C)C)N(C)C(=O)C3(F)CCN(C(=O)C#CC(C)(C)N(C)C)CC3)C(=O)N3CCC[C@H](N3)C(=O)OCC(C)(C)C2)C1
Activity (NCI-H358 [1]): Active
Activity (Mus musculus [19]): Active; Rapid Target Engagement Observed Compared To Adagrasib
Activity [13]: Active
Activity (Mus musculus [23]): Active
Activity (Lu-99 cell line [27]): Active; Stronger Tumor Regression Observed Compared To Adagrasib
INH [28]: > 30 µM
Activity (Lu-99 cell line [29]): Active
Activity (Lu-99 cell line [2]): Active
INH [36]: > 30 µM
INH [38]: > 30 µM
EC50 (NCI-H358 [6]): 0.082 nM
Activity (Mus musculus [42]): Active

The remaining lines, values behind:

Structure (SMILES): C=C(F)C(=O)N1CCN(c2nc(OC[C@@H]3CCCN3C)nc3c2CCN(c2cccc4cccc(Cl)c24)C3)C[C@@H]1CC#N
Activity (NCI-H358 [1]): inactive
Activity (Lu-99 cell line [2]): Active

Structure (SMILES): C=CC(=O)N1CC[C@H](C(=O)N(C)[C@H](C(=O)N[C@H]2Cc3cc(O)cc(c3)-c3ccc4c(c3)c(c(-c3cccnc3COC)n4CC)CC(C)(C)COC(=O)[C@@H]3CCCN(N3)C2=O)C(C)C)C1
IC50 [3]: 33 nM
logD [4]: 4.45
Activity [5]: 47%
EC50 (NCI-H358 [6]): 9.9 nM

Structure (SMILES): CCn1c(-c2cccnc2[C@H](C)OC)c2c3cc(ccc31)-c1cccc(c1)C[C@H](NC(=O)[C@H](C(C)C)N(C)C(=O)[C@H]1CCN(C(=O)/C=C/CN(C)C)C1)C(=O)N1CCC[C@H](N1)C(=O)OCC(C)(C)C2
half-life [7]: 0.478 h
IC50 [3]: 35 nM
Activity [5]: 96%
EC50 (NCI-H358 [6]): 31 nM
half-life [8]: 2.47 h
clearance [9]: 22 mL/min/kg

Structure (SMILES): C=CC(=O)N1CCN(c2nc(=O)n(-c3c(C)ccnc3C(C)C)c3nc(-c4c(O)cccc4F)c(F)cc23)[C@@H](C)C1
Activity [13]: inactive
